Patent publication US20210386068A1, “COMPOSITIONS COMPRISING PYRIDINE CARBOXYLATE HERBICIDES AND VERY LONG CHAIN FATTY ACID (VLCFA) SYNTHESIS INHIBITOR HERBICIDES” (priority 2018, published 2021)

Legend:
Assay type in all cases: in vivo
[1] = system: Polygonum convolvulus (wild buckwheat, POLCO); assay: Greenhouse postemergence herbicidal effect, visual injury 20-22 d after spraying, wild buckwheat (POLCO); conditions: POLCO
From the text: (§1) Seeds of the desired test plant species were planted in a 90:10% v/v (volume/volume) mixture of PRO-MIX® BX (Premier Tech Horticulture, Quakertown, Pa., USA) and PROFILE® GREENS GRADE™ (Profile Products LLC, Buffalo Grove, Ill., USA) planting mixture, which typically has a pH of 5.2 to 6.2 and an organic matter content of at least 50 percent, in plastic pots with a surface area of 103.2 square centimeters (cm^2). In some aspects, to ensure good germination and healthy plants, a fungicide treatment and/or other chemical or physical treatment was applied. The plants were grown for 7-36 days (d) in a greenhouse with an approximate 14-hour (h) photoperiod which was maintained at about 23° C. during the day and 22° C. during the night. Nutrients and water were added on a regular basis and supplemental lighting was provided with overhead metal halide 1000-Watt lamps as necessary. The plants were employed for testing when they reached the second or third true leaf stage.
(§2) Emulsifiable concentrates of each of each pyridine carboxylate herbicide (Compound A or Compound B) were prepared at 100 grams acid equivalent per liter (g ae/L). The emulsifiable concentrates also included a safener, cloquintocet-mexyl, at 120 grams active ingredient per liter (g ai/L). An aliquot of each emulsifiable concentrate was placed in a 25 mL glass vial and diluted with an aqueous mixture of 1.25% (v/v) ACTIROB® B esterified rapeseed oil (Bayer Crop Science, Research Triangle Park, N.C., USA) or MSO® Concentrate with LECI-TECH® methylated soybean oil (Loveland Products, Loveland, Colo., USA) to obtain concentrated stock solutions at the highest application rate for each herbicide, based upon a 12 milliliter (mL) application volume at a rate of 187 liters per hectare (L/ha). The concentrated stock solutions were further diluted with an aqueous mixture of 1.25% v/v ACTIROB® B or MSO® Concentrate with LECI-TECH® to obtain stock solutions at reduced application rates for each herbicide. Spray solutions of the herbicide combinations (Compound A or Compound B plus VLCFA synthesis inhibitor herbicide) were prepared by adding weighed amounts or aliquots of the VLCFA synthesis inhibitor herbicide to the stock solutions of Compound A or Compound B to form 12-mL spray solutions in two-way combinations.
(§3) The spray solutions were applied to the plant material with an overhead Mandel track sprayer equipped with 8002E nozzles calibrated to deliver 187 L/ha over an application area of 0.503 square meters (m^2) at a spray height of 18 inches ([…] (cm)) above the average plant canopy. Control plants were sprayed in the same manner with the solvent blank. All pyridine carboxylate herbicide (component a) application rates are given as “g ae/ha” and all VLCFA synthesis inhibitor herbicide (component b) application rates are given as “g ai/ha.”
(§4) The treated plants and control plants were placed in a greenhouse as described above and watered by sub-irrigation to prevent wash-off of the test compounds. After 20-22 d, the condition of the test plants as compared with that of the control plants was determined visually and scored on a scale of 0 to 100 percent where 0 corresponds to no injury and 100 corresponds to complete kill.

[2] = system: Sinapis arvensis (wild mustard, SINAR); assay: Greenhouse postemergence herbicidal effect, visual injury 20-22 d after spraying, wild mustard (SINAR); conditions: SINAR
From the text: as §1, §2, §3, §4

[3] = system: Brassica napus (winter rape, BRSNW); assay: Greenhouse postemergence herbicidal effect, visual injury 20-22 d after spraying, winter rape (BRSNW); conditions: BRSNW
From the text: as §1, §2, §3, §4

[4] = system: Salsola kali (Russian thistle, SASKR); assay: Greenhouse postemergence herbicidal effect, visual injury 20-22 d after spraying, Russian thistle (SASKR); conditions: SASKR
From the text: as §1, §2, §3, §4

[5] = system: Amaranthus retroflexus (pigweed, AMARE); assay: Greenhouse postemergence herbicidal effect, visual injury 20-22 d after spraying, pigweed (AMARE)
From the text: as §1, §2, §3, §4

[6] = system: Kochia scoparia (kochia, KCHSC); assay: Greenhouse postemergence herbicidal effect, visual injury 20-22 d after spraying, kochia (KCHSC); conditions: KCHSC
From the text: as §1, §2, §3, §4

[7] = system: Chenopodium album L. (common lambsquarters, CHEAL); assay: Greenhouse postemergence herbicidal effect, visual injury 20-22 d after spraying, common lambsquarters (CHEAL)
From the text: as §1, §2, §3, §4

[8] = system: Matricaria chamomilla (wild chamomile, MATCH); assay: Greenhouse postemergence herbicidal effect, visual injury 20-22 d after spraying, wild chamomile (MATCH); conditions: MATCH
From the text: as §1, §2, §3, §4

[9] = system: Cirsium arvense (Canadian thistle, CIRAR); assay: Greenhouse postemergence herbicidal effect, visual injury 20-22 d after spraying, Canadian thistle (CIRAR); conditions: CIRAR
From the text: as §1, §2, §3, §4

[10] = system: Brassica napus (spring rape, BRSNN); assay: Greenhouse postemergence herbicidal effect, visual injury 20-22 d after spraying, spring rape (BRSNN)
From the text: as §1, §2, §3, §4

[11] = system: Hordeum vulgare (spring barley, HORVS); assay: Greenhouse postemergence crop phytotoxicity, visual injury 20-22 d after spraying, spring barley (HORVS); conditions: HORVS
From the text: as §1, §2, §3, §4

[12] = system: Triticum aestivum (spring wheat, TRZAS); assay: Greenhouse postemergence crop phytotoxicity, visual injury 20-22 d after spraying, spring wheat (TRZAS); conditions: TRZAS
From the text: as §1, §2, §3, §4

Compound: CCCCOCN(C(=O)CCl)c1c(CC)cccc1CC [Butachlor, N-(butoxymethyl)-2-chloro-N-(2,6-diethylphenyl) acetamide]
- % visual injury Obs ([1]; Butachlor 450 g/ha alone): 0%
- % visual injury Obs ([2]; Butachlor 450 g/ha alone): 0%
- % visual injury Obs ([3]; Butachlor 450 g/ha alone): 0%
- % visual injury Obs ([4]; Butachlor 450 g/ha alone): 0%
- % visual injury Obs ([5]; Butachlor 450 g/ha alone): 0%
- % visual injury Obs ([6]; Butachlor 450 g/ha alone): 0%
- % visual injury Obs ([7]; Butachlor 450 g/ha alone): 0%
- % visual injury Obs ([8]; Butachlor 450 g/ha alone): 5%
- % visual injury Obs ([9]; Butachlor 450 g/ha alone): 0%

Compound: CCN(CC)C(=O)n1cnc(S(=O)(=O)c2c(C)cc(C)cc2C)n1 [Cafenstrole, N,N-diethyl-3-[(2,4,6-trimethylphenyl)sulfonyl]-1H-1,2,4-triazole-1-carboxamide]
- % visual injury Obs ([10]; Cafenstrole 52.5 g/ha alone): 5%
- % visual injury Obs ([1]; Cafenstrole 52.5 g/ha alone): 5%
- % visual injury Obs ([2]; Cafenstrole 52.5 g/ha alone): 0%
- % visual injury Obs ([4]; Cafenstrole 52.5 g/ha alone): 0%
- % visual injury Obs ([11]; Cafenstrole 52.5 g/ha alone): 0%
- % visual injury Obs ([12]; Cafenstrole 52.5 g/ha alone): 0%
- % visual injury Obs ([6]; Cafenstrole 52.5 g/ha alone): 5%
- % visual injury Obs ([7]; Cafenstrole 52.5 g/ha alone): 0%
- % visual injury Obs ([8]; Cafenstrole 52.5 g/ha alone): 5%

Compound: COC[C@H](C)N(C(=O)CCl)c1c(C)csc1C [Dimethenamid-P, (S)-2-chloro-N-(2,4-dimethyl-3-thienyl)-N-(2-methoxy-1-methyl-ethyl)acetamide]
- % visual injury Obs ([10]; Dimethenamid-P 560 g/ha alone): 0%
- % visual injury Obs ([1]; Dimethenamid-P 560 g/ha alone): 0%
- % visual injury Obs ([2]; Dimethenamid-P 560 g/ha alone): 0%
- % visual injury Obs ([4]; Dimethenamid-P 560 g/ha alone): 0%
- % visual injury Obs ([5]; Dimethenamid-P 560 g/ha alone): 10%
- % visual injury Obs ([6]; Dimethenamid-P 560 g/ha alone): 0%
- % visual injury Obs ([7]; Dimethenamid-P 560 g/ha alone): 0%
- % visual injury Obs ([8]; Dimethenamid-P 560 g/ha alone): 0%
- % visual injury Obs ([9]; Dimethenamid-P 560 g/ha alone): 0%

Compound: CCN(C(=O)n1nnn(-c2ccccc2Cl)c1=O)C1CCCCC1 [Fentrazamide, 4-(2-chlorophenyl)-N-cyclohexyl-N-ethyl-4,5-dihydro-5-oxo-1H-tetrazole-1-carboxamide]
- % visual injury Obs ([1]; Fentrazamide 200 g/ha alone): 5%
- % visual injury Obs ([2]; Fentrazamide 200 g/ha alone): 0%
- % visual injury Obs ([3]; Fentrazamide 200 g/ha alone): 0%
- % visual injury Obs ([4]; Fentrazamide 200 g/ha alone): 0%
- % visual injury Obs ([11]; Fentrazamide 200 g/ha alone): 0%
- % visual injury Obs ([12]; Fentrazamide 200 g/ha alone): 0%
- % visual injury Obs ([5]; Fentrazamide 200 g/ha alone): 0%
- % visual injury Obs ([6]; Fentrazamide 200 g/ha alone): 0%
- % visual injury Obs ([7]; Fentrazamide 200 g/ha alone): 0%
- % visual injury Obs ([8]; Fentrazamide 200 g/ha alone): 0%
- % visual injury Obs ([9]; Fentrazamide 200 g/ha alone): 0%

Compound: CN(C(=O)COc1nc2ccccc2s1)c1ccccc1 [Mefenacet, 2-(2-benzothiazolyloxy)-N-methyl-N-phenylacetamide]
- % visual injury Obs ([10]; Mefenacet 50 g/ha alone): 5%
- % visual injury Obs ([1]; Mefenacet 50 g/ha alone): 0%
- % visual injury Obs ([2]; Mefenacet 50 g/ha alone): 0%
- % visual injury Obs ([4]; Mefenacet 50 g/ha alone): 0%
- % visual injury Obs ([6]; Mefenacet 50 g/ha alone): 0%
- % visual injury Obs ([7]; Mefenacet 50 g/ha alone): 0%
- % visual injury Obs ([8]; Mefenacet 50 g/ha alone): 0%

Compound: CCOCCN(C(=O)CCl)C(=C(C)C)c1ccccc1 [Pethoxamid, 2-chloro-N-(2-ethoxyethyl)-N-(2-methyl-1-phenyl-1-propen-1-yl)acetamide]
- % visual injury Obs ([1]; Pethoxamid 600 g/ha alone): 0%
- % visual injury Obs ([2]; Pethoxamid 600 g/ha alone): 0%
- % visual injury Obs ([3]; Pethoxamid 600 g/ha alone): 0%
- % visual injury Obs ([4]; Pethoxamid 600 g/ha alone): 0%
- % visual injury Obs ([11]; Pethoxamid 600 g/ha alone): 0%
- % visual injury Obs ([12]; Pethoxamid 600 g/ha alone): 0%
- % visual injury Obs ([5]; Pethoxamid 600 g/ha alone): 0%
- % visual injury Obs ([6]; Pethoxamid 600 g/ha alone): 0%
- % visual injury Obs ([7]; Pethoxamid 600 g/ha alone): 0%
- % visual injury Obs ([8]; Pethoxamid 600 g/ha alone): 0%
- % visual injury Obs ([9]; Pethoxamid 600 g/ha alone): 0%

Compound: Cn1nc(C(F)(F)F)c(CS(=O)(=O)C2=NOC(C)(C)C2)c1OC(F)F [Pyroxasulfone, 3-[[[5-(difluoromethoxy)-1-methyl-3-(trifluoromethyl)-1H-pyrazol-4-yl]methyl]sulfonyl]-4,5-dihydro-5,5-dimethylisoxazole]
- % visual injury ([1]; Pyroxasulfone 100 g/ha alone): 0%
- % visual injury ([2]; Pyroxasulfone 100 g/ha alone): 28%
- % visual injury ([3]; Pyroxasulfone 100 g/ha alone): 5%
- % visual injury ([4]; Pyroxasulfone 100 g/ha alone): 10%
- % visual injury ([5]; Pyroxasulfone 100 g/ha alone): 5%
- % visual injury ([6]; Pyroxasulfone 100 g/ha alone): 0%
- % visual injury ([7]; Pyroxasulfone 100 g/ha alone): 0%
- % visual injury ([8]; Pyroxasulfone 100 g/ha alone): 0%
- % visual injury ([9]; Pyroxasulfone 100 g/ha alone): 0%

Compound: S-Metolachlor
- % visual injury Obs ([1]; S-Metolachlor 500 g/ha alone): 0%
- % visual injury Obs ([2]; S-Metolachlor 500 g/ha alone): 0%
- % visual injury Obs ([3]; S-Metolachlor 500 g/ha alone): 0%
- % visual injury Obs ([4]; S-Metolachlor 500 g/ha alone): 0%
- % visual injury Obs ([11]; S-Metolachlor 500 g/ha alone): 0%
- % visual injury Obs ([12]; S-Metolachlor 500 g/ha alone): 0%
- % visual injury Obs ([5]; S-Metolachlor 500 g/ha alone): 0%
- % visual injury Obs ([6]; S-Metolachlor 500 g/ha alone): 0%
- % visual injury Obs ([7]; S-Metolachlor 500 g/ha alone): 0%
- % visual injury Obs ([8]; S-Metolachlor 500 g/ha alone): 0%
- % visual injury Obs ([9]; S-Metolachlor 500 g/ha alone): 0%
